Values quoted from earlier work as cited in patent publication US7169819B2, “Pharmaceutical compositions of fenretinide having increased bioavailability and methods of using the same” (Childrens Hospital Los Angeles, priority 2000, dated 2007).

What was measured:
[1] = background statement
[2] = rodents

Structure (SMILES): CC1=C(/C=C/C(C)=C/C=C/C(C)=C/C(=O)Nc2ccc(O)cc2)C(C)(C)CCC1 [Fenretinide, all-trans-N-(4-hydroxyphenyl)retinamide]
- Solubility in aqueous solution [1]: minimally soluble
- half-life [2]: 12 to 16 h
